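GI50 is the concentration that inhibits growth by half. At the TGI there is no net growth.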
Legend:
Test in all cases: NCI tumour cell line growth inhibition, 384-well format
[1] = system: 786-0 renal
[2] = system: A498 renal
[3] = system: A549 NSCLC
[4] = system: ACHN renal
[5] = system: BT-549 breast
[6] = system: CAKI-1 renal
[7] = system: CCRF-CEM leukemia
[8] = system: COLO 205 colon
[9] = system: DU-145 prostate
[10] = system: EKVX NSCLC
[11] = system: HCC-2998 colon
[12] = system: HCT-116 colon
[13] = system: HCT-15 colon
[14] = system: HL-60(TB) leukemia
[15] = system: HOP-62 NSCLC
[16] = system: HOP-92 NSCLC
[17] = system: HS 578T breast
[18] = system: HT29 colon
[19] = system: IGROV1 ovarian
[20] = system: K-562 leukemia
[21] = system: KM12 colon
[22] = system: LOX IMVI melanoma
[23] = system: M14 melanoma
[24] = system: MALME-3M melanoma
[25] = system: MCF7 breast
[26] = system: MDA-MB-231 breast
[27] = system: MDA-MB-435 melanoma
[28] = system: MDA-MB-468 breast
[29] = system: MOLT-4 leukemia
[30] = system: NCI-H226 lung
[31] = system: NCI-H23 lung
[32] = system: NCI-H322M lung
[33] = system: NCI-H460 NSCLC
[34] = system: NCI-H522 lung
[35] = system: NCI/ADR-RES ovarian
[36] = system: OVCAR-3 ovarian
[37] = system: OVCAR-4 ovarian
[38] = system: OVCAR-5 ovarian
[39] = system: PC-3 prostate
[40] = system: RPMI-8226 leukemia
[41] = system: RXF 393 renal
[42] = system: SF-268 CNS
[43] = system: SF-295 CNS
[44] = system: SF-539 CNS
[45] = system: SK-MEL-2 melanoma
[46] = system: SK-MEL-28 melanoma
[47] = system: SK-MEL-5 melanoma
[48] = system: SK-OV-3 ovarian
[49] = system: SN12C renal
[50] = system: SNB-19 CNS
[51] = system: SNB-75 CNS
[52] = system: SR leukemia
[53] = system: SW-620 colon
[54] = system: T-47D breast
[55] = system: TK-10 renal
[56] = system: U251 glioblastoma
[57] = system: UACC-257 melanoma
[58] = system: UACC-62 melanoma
[59] = system: UO-31 renal

C[C@@H](N)C1CCC(C(=O)Nc2ccncc2)CC1 (stereo partly drawn)
GI50 [1]: > 100 µM
TGI [1]: > 100 µM
GI50 [2]: > 100 µM
TGI [2]: > 100 µM
GI50 [3]: > 100 µM
TGI [3]: > 100 µM
GI50 [4]: > 100 µM
TGI [4]: > 100 µM
GI50 [5]: 25.9 µM
TGI [5]: > 100 µM
GI50 [6]: > 100 µM
TGI [6]: > 100 µM
GI50 [7]: > 100 µM
TGI [7]: > 100 µM
GI50 [8]: > 100 µM
TGI [8]: > 100 µM
GI50 [9]: > 100 µM
TGI [9]: > 100 µM
GI50 [10]: > 100 µM
TGI [10]: > 100 µM
GI50 [11]: 85.3 µM
TGI [11]: > 100 µM
GI50 [12]: > 100 µM
TGI [12]: > 100 µM
GI50 [13]: > 100 µM
TGI [13]: > 100 µM
GI50 [14]: 64 µM
TGI [14]: > 100 µM
GI50 [15]: 77.4 µM
TGI [15]: > 100 µM
GI50 [16]: 75.8 µM
TGI [16]: > 100 µM
GI50 [17]: 38.5 µM
TGI [17]: > 100 µM
GI50 [18]: 68.4 µM
TGI [18]: > 100 µM
GI50 [19]: 80 µM
TGI [19]: > 100 µM
GI50 [20]: 39.9 µM
TGI [20]: > 100 µM
GI50 [21]: > 100 µM
TGI [21]: > 100 µM
GI50 [22]: > 100 µM
TGI [22]: > 100 µM
GI50 [23]: > 100 µM
TGI [23]: > 100 µM
GI50 [24]: > 100 µM
TGI [24]: > 100 µM
GI50 [25]: 60.3 µM
TGI [25]: > 100 µM
GI50 [26]: > 100 µM
TGI [26]: > 100 µM
GI50 [27]: > 100 µM
TGI [27]: > 100 µM
GI50 [28]: 31 µM
TGI [28]: > 100 µM
GI50 [29]: 50.7 µM
TGI [29]: > 100 µM
GI50 [30]: > 100 µM
TGI [30]: > 100 µM
GI50 [31]: > 100 µM
TGI [31]: > 100 µM
GI50 [32]: > 100 µM
TGI [32]: > 100 µM
GI50 [33]: > 100 µM
TGI [33]: > 100 µM
GI50 [34]: > 100 µM
TGI [34]: > 100 µM
GI50 [35]: > 100 µM
TGI [35]: > 100 µM
GI50 [36]: > 100 µM
TGI [36]: > 100 µM
GI50 [37]: > 100 µM
TGI [37]: > 100 µM
GI50 [38]: > 100 µM
TGI [38]: > 100 µM
GI50 [39]: > 100 µM
TGI [39]: > 100 µM
GI50 [40]: 88.4 µM
TGI [40]: > 100 µM
GI50 [41]: 40.9 µM
TGI [41]: > 100 µM
GI50 [42]: 69.7 µM
TGI [42]: > 100 µM
GI50 [43]: 77.8 µM
TGI [43]: > 100 µM
GI50 [44]: > 100 µM
TGI [44]: > 100 µM
GI50 [45]: > 100 µM
TGI [45]: > 100 µM
GI50 [46]: > 100 µM
TGI [46]: > 100 µM
GI50 [47]: > 100 µM
TGI [47]: > 100 µM
GI50 [48]: > 100 µM
TGI [48]: > 100 µM
GI50 [49]: > 100 µM
TGI [49]: > 100 µM
GI50 [50]: > 100 µM
TGI [50]: > 100 µM
GI50 [51]: 55.9 µM
TGI [51]: > 100 µM
GI50 [52]: 7.94 µM
TGI [52]: 21.9 µM
GI50 [53]: 92 µM
TGI [53]: > 100 µM
GI50 [54]: 99.3 µM
TGI [54]: > 100 µM
GI50 [55]: > 100 µM
TGI [55]: > 100 µM
GI50 [56]: 87.8 µM
TGI [56]: > 100 µM
GI50 [57]: > 100 µM
TGI [57]: > 100 µM
GI50 [58]: > 100 µM
TGI [58]: > 100 µM
GI50 [59]: > 100 µM
TGI [59]: > 100 µM

— PubChem BioAssay (NCI)
